From patent US4731451A, “N-((2-oxo-3(2H)benzothiazolyl)methyl)-2-chloroacetanilides” (Monsanto Company, priority 1980, dated 1988)

Tests used:
Assay type in all cases: in vivo
Wheat = assay: Pre-emergent herbicidal activity (Table III)
In short: (§1)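 Seeds or vegetative propagules sown in top soil in pans, then covered with soil mixed with a known amount of active ingredient (solvent or wettable-powder suspension). Greenhouse grown, watered from below; injury rated on a fixed percent-injury scale about 2-3 weeks after seeding and treatment.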

Sorghum = assay: Pre-emergent herbicidal activity (Table III)
In short: as §1

Panicum = assay: Pre-emergent herbicidal activity (Table III)
In short: as §1

Sugarbeet = assay: Pre-emergent herbicidal activity (Table III)
In short: as §1

Wild Buckwheat = assay: Pre-emergent herbicidal activity (Table III)
In short: as §1

Cocklebur [1] = assay: Pre-emergent herbicidal activity (Table III)
In short: as §1

Rice = assay: Pre-emergent herbicidal activity (Table III)
In short: as §1

Barnyardgrass [2] = assay: Pre-emergent herbicidal activity (Table III)
In short: as §1

Downy Brome [3] = assay: Pre-emergent herbicidal activity (Table III)
In short: as §1

Velvetleaf [4] = assay: Pre-emergent herbicidal activity (Table III)
In short: as §1

Smartweed [5] = assay: Pre-emergent herbicidal activity (Table III)
In short: as §1

Soybean = assay: Pre-emergent herbicidal activity (Table III)
In short: as §1

Morningglory [6] = assay: Pre-emergent herbicidal activity (Table III)
In short: as §1

Hemp Sesbania = assay: Pre-emergent herbicidal activity (Table III)
In short: as §1

Crabgrass = assay: Pre-emergent herbicidal activity (Table III)
In short: as §1

Lambsquarters [7] = assay: Pre-emergent herbicidal activity (Table III)
In short: as §1

Johnsongrass = assay: Pre-emergent herbicidal activity (Table II); settings: 2-3 weeks
In short: (§2)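 Active ingredient, in solvent or as wettable powder suspension, mixed into cover soil over seeds or propagules in pans; bottom-watered in greenhouse. Percent injury rated on a fixed scale about 2-3 weeks after seeding and treatment.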

Quackgrass = assay: Pre-emergent herbicidal activity (Table II); settings: 2-3 weeks
In short: as §2

Canada Thistle = assay: Pre-emergent herbicidal activity (Table II); settings: 2-3 weeks
In short: as §2

Yellow Nutsedge = assay: Pre-emergent herbicidal activity (Table II); settings: 2-3 weeks
In short: as §2

Cocklebur [8] = assay: Pre-emergent herbicidal activity (Table II); settings: 2-3 weeks
In short: as §2

Barnyardgrass [9] = assay: Pre-emergent herbicidal activity (Table II); settings: 2-3 weeks
In short: as §2

Downy Brome [10] = assay: Pre-emergent herbicidal activity (Table II); settings: 2-3 weeks
In short: as §2

Velvetleaf [11] = assay: Pre-emergent herbicidal activity (Table II); settings: 2-3 weeks
In short: as §2

Smartweed [12] = assay: Pre-emergent herbicidal activity (Table II); settings: 2-3 weeks
In short: as §2

Morningglory [13] = assay: Pre-emergent herbicidal activity (Table II); settings: 2-3 weeks
In short: as §2

Lambsquarters [14] = assay: Pre-emergent herbicidal activity (Table II); settings: 2-3 weeks
In short: as §2
Also: ranges in brackets are in %.

In the case of CC1=C(N(Cn2c(=O)sc3ccccc32)C(=O)CCl)C(C)CCC1 (stereo not shown) [Example 9, N--[(2-oxo-3(2H)--benzothiazolyl)methyl]-N--(2,6-dimethyl-1-cyclohexen-1-yl)-2-chloroamide], the Herbicidal rating (Wheat; 0.26 kg/ha) is reported as 0 (0-24), the Herbicidal rating (Wheat; 1.12 kg/ha) is reported as 0 (0-24) and the Herbicidal rating (Wheat; 5.6 kg/ha) is reported as 2 (50-74). For the same molecule, the Herbicidal rating (Sorghum; 0.26 kg/ha) was 0 (0-24), the Herbicidal rating (Sorghum; 1.12 kg/ha) was 0 (0-24) and the Herbicidal rating (Sorghum; 5.6 kg/ha) was 2 (50-74). For the same molecule, the Herbicidal rating (Panicum; 0.26 kg/ha) was 0 (0-24), the Herbicidal rating (Panicum; 1.12 kg/ha) was 0 (0-24) and the Herbicidal rating (Panicum; 5.6 kg/ha) was 3 (75-100). The Herbicidal rating (Sugarbeet; 0.26 kg/ha) was 0 (0-24), the Herbicidal rating (Sugarbeet; 1.12 kg/ha) was 0 (0-24) and the Herbicidal rating (Sugarbeet; 5.6 kg/ha) was 1 (25-49). For the same molecule, the Herbicidal rating (Wild Buckwheat; 0.26 kg/ha) was 0 (0-24), the Herbicidal rating (Wild Buckwheat; 1.12 kg/ha) was 0 (0-24) and the Herbicidal rating (Wild Buckwheat; 5.6 kg/ha) was 0 (0-24). The Herbicidal rating (Cocklebur [1]; 0.26 kg/ha) was 0 (0-24), the Herbicidal rating (Cocklebur [1]; 1.12 kg/ha) was 0 (0-24) and the Herbicidal rating (Rice; 0.26 kg/ha) was 0 (0-24). The Herbicidal rating (Rice; 1.12 kg/ha) was 2 (50-74), the Herbicidal rating (Rice; 5.6 kg/ha) was 2 (50-74) and the Herbicidal rating (Barnyardgrass [2]; 0.26 kg/ha) was 2 (50-74). The Herbicidal rating (Barnyardgrass [2]; 1.12 kg/ha) was 3 (75-100), the Herbicidal rating (Barnyardgrass [2]; 5.6 kg/ha) was 3 (75-100) and the Herbicidal rating (Downy Brome [3]; 0.26 kg/ha) was 0 (0-24). For the same molecule, the Herbicidal rating (Downy Brome [3]; 1.12 kg/ha) was 0 (0-24), the Herbicidal rating (Downy Brome [3]; 5.6 kg/ha) was 2 (50-74) and the Herbicidal rating (Velvetleaf [4]; 0.26 kg/ha) was 0 (0-24). The Herbicidal rating (Velvetleaf [4]; 1.12 kg/ha) was 0 (0-24), the Herbicidal rating (Velvetleaf [4]; 5.6 kg/ha) was 0 (0-24) and the Herbicidal rating (Smartweed [5]; 0.26 kg/ha) was 0 (0-24). For the same molecule, the Herbicidal rating (Smartweed [5]; 1.12 kg/ha) was 0 (0-24), the Herbicidal rating (Smartweed [5]; 5.6 kg/ha) was 1 (25-49) and the Herbicidal rating (Soybean; 0.26 kg/ha) was 0 (0-24). The Herbicidal rating (Soybean; 1.12 kg/ha) was 0 (0-24), the Herbicidal rating (Soybean; 5.6 kg/ha) was 0 (0-24) and the Herbicidal rating (Morningglory [6]; 1.12 kg/ha) was 0 (0-24). The Herbicidal rating (Morningglory [6]; 5.6 kg/ha) was 0 (0-24), the Herbicidal rating (Hemp Sesbania; 1.12 kg/ha) was 0 (0-24) and the Herbicidal rating (Hemp Sesbania; 5.6 kg/ha) was 0 (0-24). For the same molecule, the Herbicidal rating (Crabgrass; 0.26 kg/ha) was 1 (25-49), the Herbicidal rating (Crabgrass; 1.12 kg/ha) was 2 (50-74) and the Herbicidal rating (Crabgrass; 5.6 kg/ha) was 3 (75-100). The Herbicidal rating (Lambsquarters [7]; 0.26 kg/ha) was 0 (0-24), the Herbicidal rating (Lambsquarters [7]; 1.12 kg/ha) was 0 (0-24) and the Herbicidal rating (Lambsquarters [7]; 5.6 kg/ha) was 1 (25-49). For the same molecule, the Herbicidal rating (Johnsongrass; 5.6 kg/ha) was 0 (0-24), the Herbicidal rating (Johnsongrass; 11.2 kg/ha) was 0 (0-24) and the Herbicidal rating (Quackgrass; 5.6 kg/ha) was 0 (0-24). For the same molecule, the Herbicidal rating (Quackgrass; 11.2 kg/ha) was 1 (25-49), the Herbicidal rating (Canada Thistle; 5.6 kg/ha) was 0 (0-24) and the Herbicidal rating (Canada Thistle; 11.2 kg/ha) was 0 (0-24). The Herbicidal rating (Yellow Nutsedge; 5.6 kg/ha) was 0 (0-24), the Herbicidal rating (Yellow Nutsedge; 11.2 kg/ha) was 0 (0-24) and the Herbicidal rating (Cocklebur [8]; 5.6 kg/ha) was 0 (0-24). For the same molecule, the Herbicidal rating (Cocklebur [8]; 11.2 kg/ha) was 0 (0-24), the Herbicidal rating (Barnyardgrass [9]; 5.6 kg/ha) was 3 (75-100) and the Herbicidal rating (Barnyardgrass [9]; 11.2 kg/ha) was 3 (75-100). The Herbicidal rating (Downy Brome [10]; 5.6 kg/ha) was 0 (0-24), the Herbicidal rating (Downy Brome [10]; 11.2 kg/ha) was 2 (50-74) and the Herbicidal rating (Velvetleaf [11]; 5.6 kg/ha) was 0 (0-24). For the same molecule, the Herbicidal rating (Velvetleaf [11]; 11.2 kg/ha) was 0 (0-24), the Herbicidal rating (Smartweed [12]; 5.6 kg/ha) was 0 (0-24) and the Herbicidal rating (Smartweed [12]; 11.2 kg/ha) was 3 (75-100). The Herbicidal rating (Morningglory [13]; 5.6 kg/ha) was 0 (0-24), the Herbicidal rating (Morningglory [13]; 11.2 kg/ha) was 0 (0-24) and the Herbicidal rating (Lambsquarters [14]; 5.6 kg/ha) was 1 (25-49). For the same molecule, the Herbicidal rating (Lambsquarters [14]; 11.2 kg/ha) was 1 (25-49).
